Measured values taken from patent publication US6808876B1, “Cellular regulators of infectious agents and methods of use” (Immusol, Inc., priority 2000, dated 2004).

What was measured:
[1] = molecular target: Herpes simplex virus thymidine kinase (HSV-tk) (Human herpesvirus 1, UniProt P0DTH5); details: cited from earlier work
[2] = system: HeLa 5′tk cells; test: GCV-mediated cell killing of HSV-tk expressing HeLa 5′tk cells; type: cell-based
Text: The Hela cell line used in these experiments was modified with a bicistronic reporter gene that confers hygromycin B resistance and GCV […]. The bicistronic reporter gene pHyg-5′tk was constructed with the SV40 promoter driving the expression of hygromycin B phosphotransferase and the 5′ untranslated region of HCV (nucleotides (nt) 38-341) upstream of HSV thymidine kinase (HSV-tk, see FIG. 1). The 5′ nontranslated region of hepatitis C virus (HCV) functions as an internal ribosome entry site (IRES) and is essential for translation of HCV proteins. Transcription of the 5′ nontranslated region allows for IRES-mediated translation of HSV-tk, which converts GCV to the monophosphate which is further metabolized to the triphosphate a cytotoxic analog of GTP. […]
Translation of HSV-tk-mediated by HCV 5′UTR (cap-independent, HCV nucleotides 38-341) was confirmed by Western blotting analysis of the tk protein. […] The functional activity of tk was determined by administration of GCV to the cell culture medium. […] To confirm that tk expression was mediated by HCV IRES and not from read-through translation of the hygromycin gene, two control plasmids were generated that were identical to the parental, except for deletion of part of the 5′UTR necessary for IRES function. […]

[3] = system: untransfected HeLa cells; test: GCV application to untransfected HeLa cells or cells expressing Core protein in place of tk; type: cell-based; details: GCV 10-100 uM
Method: Translation of HSV-tk-mediated by HCV 5′UTR (cap-independent, HCV nucleotides 38-341) was confirmed by Western blotting analysis of the tk protein. The vector was designed such that the authentic HCV Core protein translation start site (AUG at position 342 of the viral RNA) serves as the translation initiation site for the tk gene. The functional activity of tk was determined by administration of GCV to the cell culture medium. […] To confirm that tk expression was mediated by HCV IRES and not from read-through translation of the hygromycin gene, two control plasmids were generated that were identical to the parental, except for deletion of part of the 5′UTR necessary for IRES function. A reporter cell line was generated by electroporation of HeLa cells with pHyg-5′tk and selected with 250 μg/ml hygromycin. Single cell clones of stable HSV-tk expressing cells (HeLa 5′tk cells) were obtained according to standard limited dilution cloning techniques and functionally characterized for GCV-mediated cell killing.

[4] = system: HCV Core protein; details: for core protein expression, reduced to % of control RzBR1 transduced cells: GCV-resistant cells, remaining level relative to control RzBR1
Method: Upon construction of the retroviral vector pLHPM a cassette translating the HCV Core protein via the HCV IRES was placed into the 3′ part of the LTR transcript. Thereby, cells transduced with the library or single Rz candidates could be analyzed for the HCV Core protein expression by Western blotting. Western blotting was performed on protein lysates using an enhanced chemiluminescent blotting detection kit (Novex), and anti-HCV core monoclonal antibody (6C7 provided by Harry Greenberg, Stanford University). Blots were exposed to film and band intensities measured using a phosphoimager and ImageQuant software. […] Band volumes of HCV Core protein in Western blotting were analyzed by densitometry, normalized towards beta-actin and expressed as percentage relative to the control (RzBR1).

[5] = system: HCV IRES; test: Ratio of Core protein to RNA transcript as indicator of HCV IRES translational activity; type: cell-based, Hepatitis C virus; details: GCV resistant colonies, compared with control Rz BR1
Text: However, to eliminate differences in expression of the retroviral transcript (harboring the 5′ UTR Core transcript) between different Rz vector transduced cells, we used the ratio between expressed Core protein and RNA transcript levels as an indicator of HCV IRES translational activity.

[6] = system: LTR-Core and HSV-tk transcripts; test: Northern blotting of LTR-Core, HSV-tk and GAPDH transcripts; type: cell-based; details: normalized to GAPDH, relative to control Rz transduced 5′tk cells
Method: To assure that the observed reductions in Core protein were not caused by reduced levels of RNA transcript, Northern blotting analysis was performed on […] extracted from stable Rz expressors after GCV selection. Total RNA (15 μg per lane) extracted from cultures at 80% confluency was separated by formaldehyde/1% agarose gel electrophoresis and transferred to nylon membrane. The RNAs were probed for different parts of the two vector derived transcripts expressed in these cells: probes were directed against the tk part of the bicistronic transcript or against the Core portion of the retroviral vector transcript respectively. −^32P dCTP labelled probes were hybridized to the membrane in Quickhyb solution (Stratagene) at 65° C. After washing in 2×SSC/0.1%SDS and exposure to film, quantitation of signal was achieved by phosphimager analysis and computer-assisted denistometry as for the Western procedure. Levels of LTR-Core (4.8 kb) and HSV-tk (2.8 kb) transcripts were normalized to signals derived from GAPDH and expressed as percentage of the signal obtained from control Rz transduced 5′tk cells.

Sequence of Herpes simplex virus thymidine kinase (HSV-tk) (P0DTH5 whole entry): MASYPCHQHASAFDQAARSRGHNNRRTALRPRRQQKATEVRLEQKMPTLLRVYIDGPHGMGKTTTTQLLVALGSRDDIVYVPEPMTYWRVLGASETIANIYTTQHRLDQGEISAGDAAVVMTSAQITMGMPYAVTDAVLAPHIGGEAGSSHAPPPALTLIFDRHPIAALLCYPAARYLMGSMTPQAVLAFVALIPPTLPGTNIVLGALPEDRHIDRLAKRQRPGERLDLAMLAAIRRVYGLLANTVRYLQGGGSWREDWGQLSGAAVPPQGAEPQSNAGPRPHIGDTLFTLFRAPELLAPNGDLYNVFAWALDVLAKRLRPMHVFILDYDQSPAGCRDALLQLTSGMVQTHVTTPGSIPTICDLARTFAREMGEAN

| Compound | better substrate for HSV-tk compared to mammalian tk [1] | core protein expression, reduced to % of control RzBR1 transduced cells [4] [%] | reduction of HCV IRES-dependent translatability (ratio Core protein/RNA transcript) [5] [%] | also measured |
| --- | --- | --- | --- | --- |
| O=c1[nH]c(=O)n([C@@H]2O[C@H](CO)[C@@H](O)[C@@H]2F)cc1I [FIAU, 1-(2″-deoxy-2′-fluoro-1-β-D-arabinofuranosyl-5-ido)uracil] | about 1000 fold | – | – | – |
| Nc1nc(O)c2ncn(COC(CO)CO)c2n1 [GCV, [9-(1,3-dihydroxy-2-propoxy)methly] guanine] | about 1000 fold | – | – | cell death on continuous GCV application ([2]; continuous GCV 10-100 uM, HSV-tk expressing HeLa cells): complete cell death; GCV killing of selected HeLa 5′tk clone ([2]; exposure to 20 uM GCV): completely killed; effect of GCV application on tk-negative cells [3]: remained unaffected |
| HCV4: hairpin ribozyme, SEQ ID NO:50; binding sequence partially matches gamma subunit of human eIF2 (CTAACTTTAGAAACTAACCAGAGAAACACACGTTGTGGTACATTACCTGGTA; chemistry not given here) | – | 42 | 76 | – |
| HCV6: hairpin ribozyme, SEQ ID NO:52; targets human eIF2Bγ mRNA (TTCTTATTAGAAAGCTACCAGAGAAACACACGTTGTGGTACATTACCTGGTA; chemistry not given here) | – | 52 | 83 | – |
| HCV8: hairpin ribozyme conferring GCV resistance, SEQ ID NO:54 (AGCCGAGGAGAATCCCACCAGAGAAACACACGTTGTGGTACATTACCTGGTA; chemistry not given here) | – | – | – | reduction of Core transcript [6]: 20%; decrease (reduction) in Core protein compared to control Rz transduced cells ([4]; GCV resistant colonies, normalized to beta-actin, relative to control RzBR1): 95% |
